According to PubChem BioAssay (NCI):
Several values for one entry are separate records, joined by “and”; a condition that tells them apart may be missing. Equal entries are not always repeated.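 Assay format: 96-well plates, 48-hour exposure. The concentration for 50% growth inhibition is given as GI50. The concentration for full growth arrest is given as TGI.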

What was measured:
Test in all cases: NCI anticancer screen, dose series, 48 h
[1] = test system: HCT-116 colon
[2] = test system: K-562 leukemia
[3] = test system: MALME-3M melanoma
[4] = test system: MOLT-4 leukemia
[5] = test system: RPMI-8226 leukemia
[6] = test system: RXF 393 renal
[7] = test system: SNB-19 CNS
[8] = test system: SR leukemia
[9] = test system: NCI/ADR-RES ovarian
[10] = test system: HS 578T breast

Compound	TGI [1]	TGI [2]	TGI [3] [µM]	TGI [4]	TGI [5] [µM]	TGI [6]	TGI [7] [µM]	TGI [8] [µM]	GI50 [1] [µM]	GI50 [2] [µM]	GI50 [4] [µM]	TGI [9]	GI50 [6] [µM]	GI50 [7] [µM]	GI50 [10] [µM]	TGI [10] [µM]	GI50 [9] [µM]	GI50 [5] [µM]	GI50 [3] [µM]
Cc1cc2c(cc1C)[n+](=O)c(C(=O)CC(=O)C(=O)Nc1c(C(C)C)cccc1C(C)C)c(C)n2[O-]	> 100 µM	> 100 µM	> 100	> 100 µM	> 100	> 100 µM	> 100	> 100	–	–	–	–	–	–	–	–	–	–	–
CCOC(=O)/C=C(/C(=O)OCC)n1cc(Cl)c(=O)n(CC(=O)OCC)c1=O	9.67 µM and 28 µM	25 µM and > 100 µM	10.3	25 µM and 10.5 µM	5.73	8.55 µM and 2.59 µM	> 100	25	13.7	4.24	3.29	25 µM and 97.7 µM	0.298	32.7	–	–	–	–	–
Cc1ccc(S(=O)(=O)C(CC(=O)N2CCCC2)C(=O)c2ccccc2)cc1 (configuration not stated)	> 100 µM	> 100 µM	> 100	> 100 µM	–	> 100 µM	> 100	> 100	–	–	–	–	–	–	–	–	–	–	–
N#CC1(Cc2ccc(N)cc2)c2ccccc2C=CN1C(=O)c1ccccc1 (configuration not stated)	> 100 µM	> 100 µM	> 100	> 100 µM	> 100	> 100 µM	> 100	94.3	–	–	–	–	–	–	–	–	–	–	–
COC(=O)C(=O)C(C(=O)C=C(C)C)C(=O)C(=O)Nc1cc(C(F)(F)F)ccc1Cl (configuration not stated)	> 100 µM	> 100 µM	> 100	> 100 µM	67	> 100 µM	> 100	39.9	–	–	–	–	–	–	–	–	–	–	–
COc1ccc(CNc2cc(OC)c(OC)c(OC)c2)cc1	> 42.4 µM	> 44.4 µM	> 100	> 77.8 µM	83.1	23 µM	> 100	> 100	–	–	–	–	–	–	–	–	–	–	–
O=C(N/N=C/c1ccccc1O)c1cccc([N+](=O)[O-])c1	> 100 µM	> 100 µM	> 100	> 100 µM	> 100	> 88.9 µM	> 100	> 100	–	–	–	–	–	–	–	–	–	–	–
O=C1C=CC(=Nc2ccc3c(c2)C(Br)c2ccccc2-3)O1 (configuration not stated)	> 100 µM	> 100 µM	> 100	> 100 µM	> 100	> 100 µM	> 100	> 100	–	–	–	–	–	–	–	–	–	–	–
COC(=O)C[C@H]1CCC2(OCCO2)[C@]1(C)C(=O)OC	> 100 µM	> 100 µM	> 100	> 100 µM	> 100	> 100 µM	> 100	–	–	–	–	–	–	–	–	–	–	–	–
N#CC(C(=N/O)/C(=N/O)C(C#N)c1ccc(Cl)cc1)c1ccc(Cl)cc1 (configuration not stated)	> 100 µM	–	> 100	–	> 100	98.7 µM	> 100	–	–	–	–	–	–	–	–	–	–	–	–
CCOC(=O)NC(=O)c1cn(C2OC(COC(=O)CCCCCCCCC(=O)OCC3OC(n4cc(C(=O)NC(=O)OCC)c(=O)[nH]c4=O)C(O)C3O)C(O)C2O)c(=O)[nH]c1=O (configuration not stated)	> 100 µM	> 100 µM	> 100	> 100 µM	> 100	> 100 µM	> 100	> 100	–	–	–	–	–	–	–	–	–	–	–
CCN(CC)c1c(C(=O)/C=C/c2ccccc2)c(-c2ccccc2)nn(C)c1=O	–	> 100 µM	> 100	–	–	> 100 µM	> 100	> 100	–	–	–	–	–	–	–	–	–	–	–
C=C(CN1CCc2ccccc2C1)c1ccc(C(=O)Nc2cnccn2)cc1	68 µM	14.7 µM	–	> 100 µM	10.3	> 100 µM	> 100	–	16.6	3.17	5.82	> 100 µM	39	51.1	57.1	> 100	4.95	3.35	–
CCCCCCCCCCCC(=O)CC(=O)c1c(O)cccc1O	31.1 µM	76.4 µM	32.6	41.9 µM	43.9	34.5 µM	36.8	45.8	–	–	–	–	–	–	–	–	–	–	–
COc1ccc2cc1Oc1ccc(cc1)CC1c3cc(c(OC)cc3CCN1C)Oc1c3c(cc4c1C(C2)N(C)CC4)OCO3 (configuration not stated)	26.8 µM	4.17 µM	–	21.5 µM	–	6.24 µM	31.5	28.2	–	–	–	–	–	–	–	–	–	–	–
CCCCN(CCCC)C(=O)C(=O)C(C#N)c1ccc(C)cc1 (configuration not stated)	> 100 µM	> 100 µM	> 100	> 100 µM	> 100	> 100 µM	> 100	–	–	–	–	–	–	–	–	–	–	–	–
Cc1ccc(CS/C(=C\c2ccc([N+](=O)[O-])cc2)C(=O)c2ccc(F)cc2)cc1	–	> 100 µM	10.4	> 100 µM	3.51	31.8 µM	4.36	–	–	3.21	3.35	> 100 µM	13	1.98	2.35	6.34	3.28	0.458	2.86
